# Test results from patent US20250099420A1, “SMALL MOLECULE MODULATORS OF GPR139 COMPLEX” (University of Florida Research Foundation, Incorporated, priority 2022, published 2025).
# Read-outs that look alike come from different tables or passages of the source.
# Legend:
# parental HEK cells = assay: HEK parental Agonist Counterscreen Assay (non-transfected cells); format: cell-based; conditions: for Averaged Max % Response (±St. Dev.): activity relative to known control
# Excerpt: The high control for the agonist counterscreen was Forskolin not acetylcholine.
# GPR139 = target: T1, GPR139 (Homo sapiens, UniProt Q6DWJ6); assay: GPR139 Agonist titration / agonist counterscreen assay (calcium detection, HEK-GPR139 cells); format: cell-based; parameters: expressed in transfected cells; host or cells: HEK Aequorin cells, Maxcyte transient transfection; conditions: GPR139 Agonist Activity; for Averaged Max % Response (±St. Dev.): activity relative to known control; for EC50: read-out: EC50
# T1 sequence (Q6DWJ6 1-353): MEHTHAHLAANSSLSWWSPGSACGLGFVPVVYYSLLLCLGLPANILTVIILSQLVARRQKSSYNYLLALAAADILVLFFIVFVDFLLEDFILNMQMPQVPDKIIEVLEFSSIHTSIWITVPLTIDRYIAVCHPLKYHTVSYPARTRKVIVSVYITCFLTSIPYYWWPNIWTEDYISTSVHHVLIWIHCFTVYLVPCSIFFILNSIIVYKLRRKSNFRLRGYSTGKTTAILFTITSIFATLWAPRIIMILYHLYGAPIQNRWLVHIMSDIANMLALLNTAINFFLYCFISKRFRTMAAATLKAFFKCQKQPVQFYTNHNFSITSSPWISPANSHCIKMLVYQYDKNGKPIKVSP
# Method: GPR activity was assessed using a calcium detection assay. […] Negative control samples were treated with DMSO. […] Intracellular calcium was measured using Calcium 5.
# [1] = Homo sapiens, HEK293, HEK Agonist Activity section of Table 4 (parental HEK counterscreen)
# [2] = HEK Agonist Activity section of Table 4 (parental HEK counterscreen)
# [3] = values printed in E-notation without unit
Structure (SMILES),Lipophilic Efficiency (logD) (parental HEK cells; HEK Agonist Activity section),Lipophilic Efficiency (logP) (parental HEK cells; HEK Agonist Activity section),Averaged Max % Response (±St. Dev.) (parental HEK cells; HEK Agonist Activity section) [%],EC50 (parental HEK cells; [1]) [µM],Averaged Max % Response (±St. Dev.) (GPR139) [%],Lipophilic Efficiency (logD) (GPR139; based on logD),Lipophilic Efficiency (logP) (GPR139; based on logP),Hill Slope (GPR139; fitted dose-response curve),Efficiency Ligand (GPR139; ligand efficiency),EC50 (parental HEK cells; [2]) [µM],Efficiency Ligand (GPR139),Hill Slope (GPR139),Lipophilic Efficiency (logD) (GPR139),Lipophilic Efficiency (logP) (GPR139),EC50 (GPR139; HEK-GPR139 cells) [µM],EC50 (GPR139; [3]) [µM],Lipophilic Efficiency (logD) (parental HEK cells; HEK Agonist Activity),Lipophilic Efficiency (logP) (parental HEK cells; HEK Agonist Activity),Averaged Max % Response (±St. Dev.) (parental HEK cells; HEK Agonist Activity) [%],"EC50 (parental HEK cells; Homo sapiens, HEK293, HEK Agonist Activity, parental non-transfected HEK cells) [µM]"
C=C1C(CC(=C)C2Cc3ccc4ccccc4c3C2)=CC(c2ccccc2)=CC1C (stereo not shown) [SR-00000002785],2.62,2.62,−10.50 ± 3.98,> 14.1,80.59 ± 9.85,4.66,4.66,0.95,0.32,,,,,,,,,,,
N[C@H](Cc1ccccc1Cl)c1nc2ccc(-c3ccncc3)cc2[nH]1.O=C(O)C(F)(F)F.O=C(O)C(F)(F)F [SR-00000003277],2.04,1.13,29.67 ± 5.05,,97.54 ± 11.30,,,,,> 14.1,0.34,1.48,3.23,2.32,0.928,,,,,
CN(C)CCOc1cc(-c2cn[nH]c2)ccc1NC(=O)C1COc2ccc(F)cc2C1.O=C(O)C(F)(F)F.O=C(O)C(F)(F)F (stereo not shown) [SR-00000004118],,,13.55 ± 13.03,,94.30 ± 8.24,,,1.08,,> 14.1,,,,,,,,,,
CN(C)CCOc1cc(NC(=O)C2COc3ccccc3C2)ccc1-c1cn[nH]c1.O=C(O)C(F)(F)F.O=C(O)C(F)(F)F (stereo not shown) [SR-00000004123],3.26,1.93,3.68 ± 4.29,,79.85 ± 11.38,,,,,> 14.1,0.28,0.37,4.48,3.15,0.847,,,,,
Cl.Cl.Nc1[nH]ncc1-c1ccc(NC(=O)[C@H](N)Cc2cccc(F)c2)cc1 [SR-00000004378],3.65,2.98,−19.97 ± 10.80,,72.99 ± 14.39,,,,,> 14.1,0.34,0.72,4.84,4.17,0.914,,,,,
CCCCCc1cc(C2=CCC=C2)ccc1CC(=O)C1CCc2ccccc2C1 (stereo not shown) [SR-00000004451],4.36,2.31,3.04 ± 3.40,> 14.1,92.93 ± 0.53,6.38,4.33,0.70,0.33,,,,,,,,,,,
O=C(Nc1ccc(-c2c[nH]cn2)cc1)C1COc2ccc(F)cc2C1 (stereo not shown) [SR-00000004710],1.65,1.64,−8.04 ± 14.30,> 14.1,89.55 ± 3.66,,,,,,0.35,0.90,3.12,3.11,0.477,,,,,
COc1cccc(CNC(=O)Nc2ccc(-c3cn[nH]c3)cc2)c1 [SR-00000005253],2.23,2.23,−10.69 ± 5.73,> 14.1,80.15 ± 4.78,4.08,4.08,0.64,0.39,,,,,,,0.202,,,,
Cc1cccc(CNC(=O)Nc2ccc(-c3cn[nH]c3)cc2)c1.O=C(O)C(F)(F)F [SR-00000005301],1.56,1.56,8.29 ± 4.70,,86.84 ± 8.43,,,,,> 14.1,0.40,0.94,3.26,3.26,0.281,,,,,
COc1ccc(CNC(=O)Nc2ccc(-c3cn[nH]c3)cc2)cc1.O=C(O)C(F)(F)F [SR-00000005347],2.23,2.23,11.55 ± 3.19,,110.92 ± 4.82,4.10,4.10,0.58,0.39,> 14.1,,,,,,0.189,,,,
O=C(Nc1ccc(-c2cn[nH]c2)cc1OCCN1CCCC1)C1COc2ccc(F)cc2C1.O=C(O)C(F)(F)F.O=C(O)C(F)(F)F (stereo not shown) [SR-00000005389],2.79,1.38,31.02 ± 4.14,,116.35 ± 10.47,4.67,3.26,0.77,0.29,> 14.1,,,,,,0.186,,,,
Cc1[nH]ncc1-c1ccc(NC(=O)C2COc3ccc(F)cc3C2)c(OCCN2CCOCC2)c1.O=C(O)C(F)(F)F.O=C(O)C(F)(F)F (stereo not shown) [SR-00000005393],1.92,1.87,10.82 ± 8.56,,87.23 ± 6.46,,,,,> 14.1,0.25,0.94,3.27,3.22,0.629,,,,,
COC(=O)c1ccc(CNC(=O)Nc2ccc(-c3cn[nH]c3)cc2)cc1.O=C(O)C(F)(F)F [SR-00000005410],2.07,2.07,7.35 ± 2.40,,99.92 ± 5.04,,,,,> 14.1,0.31,1.14,2.93,2.93,1.9,,,,,
COc1ccc(CCC(=O)Nc2ccc(-c3cn[nH]c3)c(OC)c2)cc1 [SR-00000005955],1.73,1.73,18.59 ± 8.23,> 14.1,95.13 ± 3.75,4.08,4.08,1.31,0.39,,,,,,,0.062,,,,
CN1CCC(Oc2cc(-c3cn[nH]c3)ccc2NC(=O)C2COc3ccc(F)cc3C2)C1 (stereo not shown) [SR-00000006339],,,,,103.42 ± 7.86,6.10,5.03,0.54,0.35,,,,,,,0.009,2.91,1.83,5.16 ± 8.02,> 14.1
